The text below walks through data of ChEMBL document CHEMBL5584344, “Discovery of Dehydrogenated Imipridone Derivatives as Activators of Human Caseinolytic Protease P” (J Med Chem, 2024).

The term Cmax denotes the highest concentration seen after dosing. A word on the AUC(0-t): it is the area under the concentration-time curve up to a stated or last time point. Lower therefore signals less exposure.

Activity calls are given as the source filed them. The rule behind the calls is not given here.

The test system of data set [1] is MIA PaCa-2. Description: Induction of apoptosis in human MIA PaCa-2 cells assessed as viable cells at 500 nM measured after 72 hrs by Annexin V-FITC/propidium iodide staining based flow cytometric analysis (reference value: 90.0%). The format is functional. As to conditions: read-out: Activity. On the technique in general: A flow cytometer gives signals particle by particle.

Data set [2] relates to MIA PaCa-2. Description: Induction of apoptosis in human MIA PaCa-2 cells assessed as late apoptotic cells at 100 nM measured after 72 hrs by Annexin V-FITC/propidium iodide staining based flow cytometric analysis (reference value: 3.59%). In kind it is functional.
Data set [3] relates to MIA PaCa-2. The experiment in a line: Induction of apoptosis in human MIA PaCa-2 cells transfected with empty vector assessed as early apoptotic cells at 100 nM measured after 72 hrs by Annexin V-FITC/propidium iodide staining based flow cytometric analysis (reference value: 2.47%). The format is functional.
A short description of data set [4]: Cmax in Sprague-Dawley rat at 15 mg/kg, po measured upto 1440 mins by LC-MS analysis. The conditions noted are these: in vivo. The format is ADME, organism-based.
A short description of data set [5]: AUC (0 to t) in Sprague-Dawley rat at 15 mg/kg, po measured upto 1440 mins by LC-MS analysis. In kind it is ADME, organism-based. The conditions noted are these: in vivo.
Data set [6] in a line: Drug concentration in Sprague-Dawley rat plasma at 15 mg/kg, po measured after 2 hrs by LC-MS analysis. In kind it is ADME, organism-based.
The nature of data set [7]: Drug concentration in Sprague-Dawley rat brain at 15 mg/kg, po measured after 2 hrs by LC-MS analysis. In kind it is ADME, organism-based.
Data set [8] in a line: Acute toxicity in female BALB/c mouse assessed as effect on heart at 200 mg/kg administered via oral gavage measured after 7 days by H and E staining based analysis. The format is organism-based. As to conditions: in vivo, 168 h, time 7 day.
Data set [9] in a line: Toxicity in male BALB/c nude mouse histological abnormality in lung at 15 to 30 mg/kg, po measured after 28 days by H and E staining based analysis. The conditions noted are these: in vivo, 672 h, dose 15-30 mg/kg, time 28 day. The format is organism-based.
Data set [10] in a line: Toxicity in male BALB/c nude mouse histological abnormality in liver at 15 to 30 mg/kg, po measured after 28 days by H and E staining based analysis. In kind it is organism-based. The conditions noted are these: in vivo, 672 h, dose 15-30 mg/kg, time 28 day.
Data set [11] is described as follows: Toxicity in male BALB/c nude mouse histological abnormality in spleen at 15 to 30 mg/kg, po measured after 28 days by H and E staining based analysis. In kind it is organism-based. As to conditions: in vivo, 672 h, dose 15-30 mg/kg, time 28 day.
The subject of data set [12] is HCT-116. As to conditions: Homo sapiens, dose 50-200 nM, time 72.0 hrs.
Data set [13] deals with HCT-116. The conditions noted are these: Homo sapiens, dose 50-200 nM, time 48.0 hrs.
The test system of data set [14] is HCT-116. The conditions noted are these: Homo sapiens, dose 100-500 nM, time 48.0 hrs.
The subject of data set [15] is HCT-116. As to conditions: Homo sapiens, dose 100-500 nM, time 48.0 hrs. The source holds these as a separate data set.

Turning to `O=c1c2c(n3ccnc3n1Cc1ccc(C(F)(F)F)cc1)CCN(Cc1cccc(Cl)c1)C2`, the viability at 0.5 µM with MIA PaCa-2 [1] worked out at 31.5%. The Activity is 5.48% in the data set on MIA PaCa-2 [2]; 3.54% with MIA PaCa-2 [3]; “Non-Toxic” in data set [8]; “Non-Toxic” in data set [9]; “Non-Toxic” in data set [10]; “Non-Toxic” in data set [11]. Besides, the highest level in data set [4] (Cmax) was 2130 ng/mL. Moreover, the AUC(0-t) at 24 h in data set [5] is 16400 ng·h/mL. In addition, the results for the concentration at 2 h in [6] and in [7] were 1340 ng/mL and 590 ng/g, respectively. The inhibition result in the data set with HCT-116 [12] and with HCT-116 [13] was “Dose-Dependent Effect” each time. For the same compound, the inhibition entry in the data set on HCT-116 [14] and in the data set with HCT-116 [15] was “Active” in each case.
